Measurements: US12054498B2, “Heteroaromatic macrocyclic ether chemotherapeutic agents” (Nuvalent, Inc., priority 2020, dated 2024)

Experiments:
[1] = biological target: T1, Ba/F3 cells EML4-ALK wt (variant 1) (Homo sapiens, UniProt Q9UM73); test: Ba/F3 cell proliferation assay, EML4-ALK wt (variant 1); type: cell-based; details: 72 hours, CellTiter-Glo
T1 construct: echinoderm microtubule-associated protein-like 4 (EML4) gene and the ALK tyrosine kinase domain; host or cells: Ba/F3 (RIKEN), retroviral pMSCV-puro; the other entry of the earlier key: EML4 (Q9HC35, Echinoderm microtubule-associated protein-like 4)
T1 sequence (Q9UM73 with tags, fused parts or gaps): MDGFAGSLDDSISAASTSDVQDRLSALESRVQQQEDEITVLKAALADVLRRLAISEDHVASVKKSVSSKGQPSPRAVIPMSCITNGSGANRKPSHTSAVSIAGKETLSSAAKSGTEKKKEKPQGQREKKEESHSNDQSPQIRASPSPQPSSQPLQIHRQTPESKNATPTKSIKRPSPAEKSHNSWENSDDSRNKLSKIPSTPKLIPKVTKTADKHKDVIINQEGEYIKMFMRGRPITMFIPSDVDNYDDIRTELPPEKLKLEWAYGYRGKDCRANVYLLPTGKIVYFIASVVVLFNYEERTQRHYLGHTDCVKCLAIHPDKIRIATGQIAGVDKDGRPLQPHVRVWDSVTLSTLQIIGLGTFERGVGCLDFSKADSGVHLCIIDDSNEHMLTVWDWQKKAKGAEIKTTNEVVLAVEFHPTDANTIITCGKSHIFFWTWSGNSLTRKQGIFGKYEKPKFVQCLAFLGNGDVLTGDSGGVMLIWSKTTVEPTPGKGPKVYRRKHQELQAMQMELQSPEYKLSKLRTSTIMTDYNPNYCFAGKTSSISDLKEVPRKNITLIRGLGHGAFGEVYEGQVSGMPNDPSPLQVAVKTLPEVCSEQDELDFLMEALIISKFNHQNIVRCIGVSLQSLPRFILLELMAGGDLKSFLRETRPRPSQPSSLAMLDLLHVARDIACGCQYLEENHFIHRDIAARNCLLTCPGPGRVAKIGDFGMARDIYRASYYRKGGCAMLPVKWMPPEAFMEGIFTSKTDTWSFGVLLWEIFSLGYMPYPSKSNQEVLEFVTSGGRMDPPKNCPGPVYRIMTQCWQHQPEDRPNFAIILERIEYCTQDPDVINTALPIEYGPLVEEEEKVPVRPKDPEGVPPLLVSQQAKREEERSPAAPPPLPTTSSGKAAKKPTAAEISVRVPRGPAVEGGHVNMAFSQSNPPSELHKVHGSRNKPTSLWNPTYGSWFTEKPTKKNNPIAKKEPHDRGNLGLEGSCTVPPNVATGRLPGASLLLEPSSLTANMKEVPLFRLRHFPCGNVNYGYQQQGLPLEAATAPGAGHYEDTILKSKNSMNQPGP
Procedure, shortened: (§1)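 Ba/F3 lines stably expressing the fusion (retroviral pMSCV-puro, selected by IL-3 withdrawal plus puromycin 0.8 μg/mL, monoclonal) were seeded at 1,000 cells/well, dosed next day with 3-fold compound dilutions, and incubated 72 hours. CellTiter-Glo luminescence gave percent inhibition; IC50 by four-parameter logistic fit.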

[2] = test system: TPM3-NTRK1-wt IC50 / primary target IC50 (e.g. CD74-ROS1-wt); test: TRKA selectivity in Ba/F3 cells (TRKA potency divided by primary target potency); type: cell-based; details: for TPM3-NTRK1-wt/CD74-ROS1-G2032R selectivity ratio: TRKA potency / CD74-ROS1-G2032R potency; for TPM3-NTRK1-wt/EML4-ALK-L1196M-G1202R selectivity ratio: TRKA potency / EML4-ALK-L1196M-G1202R potency
Method: TRKA selectivity was calculated by dividing a compound's TRKA potency by its primary target potency (e.g. TPM3-NTRK1-wt IC50/CD74-ROS1-wt IC50). Compound selectivity can be interpreted by binning ratio values: bin A for very high selectivity, ratio >30-fold; bin B for high selectivity, ratio >10-fold; bin C for moderate selectivity, ratio ≥1; and bin D for low selectivity, ratio <1. […] (nd=not determined).

Ba/F3 cells TPM3-TRKA = biological target: T2, Ba/F3 cells TPM3-TRKA (Homo sapiens, UniProt P04629); test: Ba/F3 cell proliferation assay, TPM3-TRKA; type: cell-based; details: 72 hours, CellTiter-Glo, read-out: TPM3-NTRK1-wt IC50
T2 construct: host or cells: Ba/F3 (RIKEN), retroviral pMSCV-puro; the other entry of the earlier key: TPM3 (P06753, Tropomyosin alpha-3 chain)
T2 sequence (P04629 510-796 limits assumed): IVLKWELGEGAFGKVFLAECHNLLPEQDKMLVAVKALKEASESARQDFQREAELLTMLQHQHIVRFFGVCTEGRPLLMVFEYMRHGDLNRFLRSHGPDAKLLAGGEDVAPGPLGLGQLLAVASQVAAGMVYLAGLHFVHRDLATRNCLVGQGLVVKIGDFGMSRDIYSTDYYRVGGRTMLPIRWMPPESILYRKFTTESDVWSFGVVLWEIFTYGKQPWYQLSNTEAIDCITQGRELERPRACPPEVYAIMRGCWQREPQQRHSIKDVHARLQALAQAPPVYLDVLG
Procedure, shortened: as §1

[3] = biological target: T3, Ba/F3 cells CD74-ROS1 G2032R (Homo sapiens, UniProt P08922, G2032R); test: Ba/F3 cell proliferation assay, CD74-ROS1 G2032R; type: cell-based; details: 72 hours, CellTiter-Glo
T3 construct: fusion of the C-terminus of ROS1 with the N-terminus of various partner proteins; host or cells: Ba/F3 (RIKEN), retroviral pMSCV-puro; the other entry of the earlier key: CD74 (P04233, HLA class II histocompatibility antigen gamma chain)
T3 sequence (P08922 1883-2347 G2032R limits assumed): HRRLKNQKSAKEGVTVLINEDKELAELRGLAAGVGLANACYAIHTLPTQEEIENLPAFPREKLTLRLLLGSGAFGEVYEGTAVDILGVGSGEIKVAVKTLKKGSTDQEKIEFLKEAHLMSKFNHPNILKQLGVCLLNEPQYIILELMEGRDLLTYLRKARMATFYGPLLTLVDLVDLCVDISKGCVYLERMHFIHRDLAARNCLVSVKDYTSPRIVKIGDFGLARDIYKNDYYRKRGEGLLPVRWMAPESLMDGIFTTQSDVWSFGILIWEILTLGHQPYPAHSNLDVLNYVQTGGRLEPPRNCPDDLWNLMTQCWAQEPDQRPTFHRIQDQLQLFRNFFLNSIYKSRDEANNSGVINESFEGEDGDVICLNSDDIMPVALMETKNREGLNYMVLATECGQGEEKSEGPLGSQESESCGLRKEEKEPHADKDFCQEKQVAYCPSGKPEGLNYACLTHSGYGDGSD
Procedure, shortened: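 Cells were seeded 1 day, then exposed to a 3-fold compound dilution series for 72 hours. Viability was read by CellTiter-Glo luminescence; IC50 came from four-parameter logistic fitting of percent inhibition.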

TRKA-wt = biological target: T4, TRKA-wt (Homo sapiens, UniProt P04629); test: Biochemical kinase assay, TRKA-wt kinase domain; details: apparent inhibitory constant, Morrison equation; ATP 2 mM in substrate solution; read-out: TRKA-wt Ki^app
T4 construct: or TRKA-wt (1 nM, BPS Bio, 40280) kinase domains in buffer; purchased BPS Bio 40280
T4 sequence (P04629 510-781 limits assumed): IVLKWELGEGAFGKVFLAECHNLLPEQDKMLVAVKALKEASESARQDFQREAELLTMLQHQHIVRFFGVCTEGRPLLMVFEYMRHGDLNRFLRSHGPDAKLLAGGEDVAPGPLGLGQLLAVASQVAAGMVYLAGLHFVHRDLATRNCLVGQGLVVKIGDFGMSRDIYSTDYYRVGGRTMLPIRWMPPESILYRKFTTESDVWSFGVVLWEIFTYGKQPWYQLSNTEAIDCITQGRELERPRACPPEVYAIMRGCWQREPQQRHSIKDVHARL
Method: (§2) First, 250 nL of compound dissolved in DMSO (100-fold of the desired concentration) was dispensed into a 384-well plate. A 12.5 μL substrate solution containing ATP (2 mM) and fluorogenic phosphorylation substrate AQT0101 (26 μM for ALK and ROS1, AssayQuant) or AQT0104 (26 μM for TRKA, AssayQuant) in buffer (50 mM HEPES pH 7.5, 0.01% Brij-35, 0.5 mM EGTA, 10 mM MgCl2) was added and mixed thoroughly. Then, a 12.5 μL kinase solution containing ALK-wt (1.5 nM, Carna, 08-518), ALK ALK L1196M/G1202R (3 nM, SignalChem, A19-12NG), ROS1-wt (0.6 nM, Carna, 08-163), ROS1-G2032R (0.5 nM, SignalChem, R14-12BG), or TRKA-wt (1 nM, BPS Bio, 40280) kinase domains in buffer (50 nM HEPES pH 7.5, 0.01% Brij-35, 2% glycerol, 0.4 mg/mL BSA, 0.5 mM EGTA, and 10 mM MgCl2) was added and mixed thoroughly. The plate was sealed and read by SpectraMax Paradigm at λ=485 nm every 2 minutes for 120 minutes at 30° C. Initial rates of reaction (v) were calculated from the change in fluorescence intensity over time during the initial, linear portion of the reaction. Finally, apparent inhibitory constants (Ki^app) were determined from regression of v and I (inhibitor concentration) to Morrison Equation (E=enzyme concentration): […]

ALK-wt = biological target: T5, ALK-wt (Homo sapiens, UniProt Q9UM73); test: Biochemical kinase assay, ALK-wt kinase domain; details: apparent inhibitory constant, Morrison equation; ATP 2 mM in substrate solution; read-out: ALK-wt Ki^app
T5 construct: purchased Carna 08-518
T5 sequence (Q9UM73 1116-1392 limits assumed): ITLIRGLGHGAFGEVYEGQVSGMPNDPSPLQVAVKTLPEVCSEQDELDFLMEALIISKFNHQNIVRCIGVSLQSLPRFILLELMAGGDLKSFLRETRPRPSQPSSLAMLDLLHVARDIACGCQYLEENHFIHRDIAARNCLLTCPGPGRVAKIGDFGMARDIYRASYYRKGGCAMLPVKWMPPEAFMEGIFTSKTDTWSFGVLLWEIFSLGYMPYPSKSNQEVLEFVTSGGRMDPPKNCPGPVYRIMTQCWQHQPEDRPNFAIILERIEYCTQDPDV
Method: as §2

ALK L1196M/G1202R = biological target: T6, ALK L1196M/G1202R (Homo sapiens, UniProt Q9UM73, G1202R/L1196M); test: Biochemical kinase assay, ALK L1196M/G1202R kinase domain; details: apparent inhibitory constant, Morrison equation; ATP 2 mM in substrate solution; read-out: ALK-L1196M-G1202R Ki^app
T6 construct: purchased SignalChem A19-12NG
T6 sequence (Q9UM73 1116-1392 L1196M/G1202R limits assumed): as the sequence (Q9UM73 1116-1392 limits assumed) above, with L81M, G87R counted along it
Method: as §2

[4] = biological target: T7, Ba/F3 cells CD74-ROS1 wild-type (wt) (Homo sapiens, UniProt P08922); test: Ba/F3 cell proliferation assay, CD74-ROS1 wild-type; type: cell-based; details: 72 hours, CellTiter-Glo
T7 construct: fusion of the C-terminus of ROS1 with the N-terminus of various partner proteins; host or cells: Ba/F3 (RIKEN), retroviral pMSCV-puro; the other entry of the earlier key: CD74 (P04233, HLA class II histocompatibility antigen gamma chain)
T7 sequence (P08922 1883-2347 limits assumed): as the sequence (P08922 1883-2347 G2032R limits assumed) above, with R150G counted along it
Method: The virus was used to infect Ba/F3 cells (RIKEN) at multiplicity of infection=1 for 1 day. Infected cells were rescued in media (RPMI-1640 with 10% fetal bovine serum and 1% streptomycin and penicillin) supplemented with mouse IL-3 (10 ng/mL) for 2 days, and stable cell lines were selected by IL-3 withdrawal and puromycin (0.8 μg/mL) for 7 days. Monoclones were selected by single-cell dilution in IL-3-free medium containing puromycin (0.8 μg/mL).
Cell Proliferation Assay Stable cells were plated at 1,000 cells/well (40 μL) in a 384-well plate for 1 day.
Test compounds (40 nL) were then added in a 3-fold dilution series using the TECAN EVO200 liquid handler and incubated for 72 hours. Plates were equilibrated at room temperature for 15 minutes followed by addition of 40 μL CellTiter-Glo reagent (Promega).
Luminescence was measured on a plate reader. Half-maximal inhibitory concentration (IC50) was calculated from percent inhibition and inhibitor concentration using four-parameter logistic regression. […] (nd=not determined).

ROS1-G2032R = biological target: T8, ROS1-G2032R (Homo sapiens, UniProt P08922, G2032R); test: Biochemical kinase assay, ROS1-G2032R kinase domain; details: apparent inhibitory constant, Morrison equation; ATP 2 mM in substrate solution; read-out: ROS1-G2032R Ki^app
T8 construct: purchased SignalChem R14-12BG
T8 sequence (P08922 1945-2222 G2032R limits assumed): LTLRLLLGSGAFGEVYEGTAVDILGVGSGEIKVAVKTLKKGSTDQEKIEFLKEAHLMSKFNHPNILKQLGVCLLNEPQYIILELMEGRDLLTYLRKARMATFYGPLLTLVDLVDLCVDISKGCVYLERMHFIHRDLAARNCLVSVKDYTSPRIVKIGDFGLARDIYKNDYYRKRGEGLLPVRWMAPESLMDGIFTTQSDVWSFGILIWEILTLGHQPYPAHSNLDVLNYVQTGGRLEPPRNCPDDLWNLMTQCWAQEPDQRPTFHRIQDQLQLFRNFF
Method: as §2, with “Then, a 12.5 μL kinase solution containing ALK-wt (1.5 nM, Carna, 08-518), ALK ALK L1196M/G1202R (3 nM, SignalChem, A19-12NG), ROS1-wt (0.6 nM, Carna, 08-163), ROS1-G2032R (0.5 nM, SignalChem, R14-12BG), or TRKA-wt (1 nM, BPS Bio, 40280) kinase domains in buffer (50 nM HEPES pH 7.5, 0.01% Brij-35, 2% glycerol, 0.4 mg/mL BSA, 0.5 mM EGTA, and 10 mM MgCl2) was added and mixed thoroughly.” left out

ROS1-wt = biological target: T9, ROS1-wt (Homo sapiens, UniProt P08922); test: Biochemical kinase assay, ROS1-wt kinase domain; details: apparent inhibitory constant, Morrison equation; ATP 2 mM in substrate solution; read-out: ROS1-wt Ki^app
T9 construct: purchased Carna 08-163
T9 sequence (P08922 1945-2222 limits assumed): as the sequence (P08922 1945-2222 G2032R limits assumed) above, with R88G counted along it
Method: as §2, with “Then, a 12.5 μL kinase solution containing ALK-wt (1.5 nM, Carna, 08-518), ALK ALK L1196M/G1202R (3 nM, SignalChem, A19-12NG), ROS1-wt (0.6 nM, Carna, 08-163), ROS1-G2032R (0.5 nM, SignalChem, R14-12BG), or TRKA-wt (1 nM, BPS Bio, 40280) kinase domains in buffer (50 nM HEPES pH 7.5, 0.01% Brij-35, 2% glycerol, 0.4 mg/mL BSA, 0.5 mM EGTA, and 10 mM MgCl2) was added and mixed thoroughly.” left out

[5] = biological target: T10, Ba/F3 cells EML4-ALK L1196M/G1202R (variant 1) (Homo sapiens, UniProt Q9UM73, G1202R/L1196M); test: Ba/F3 cell proliferation assay, EML4-ALK L1196M/G1202R (variant 1); type: cell-based; details: 72 hours, CellTiter-Glo
T10 construct: echinoderm microtubule-associated protein-like 4 (EML4) gene and the ALK tyrosine kinase domain; host or cells: Ba/F3 (RIKEN), retroviral pMSCV-puro; the other entry of the earlier key: EML4 (Q9HC35, Echinoderm microtubule-associated protein-like 4)
T10 sequence (Q9UM73 with tags, fused parts or gaps L1196M/G1202R): as the sequence (Q9UM73 with tags, fused parts or gaps) above, with L635M, G641R counted along it
Procedure, shortened: as §1

IC50 [1] | IC50 (Ba/F3 cells TPM3-TRKA) | IC50 [3] | Ki (TRKA-wt) | Ki (ALK-wt) | Ki (ALK L1196M/G1202R) | IC50 [4] | Ki (ROS1-G2032R) | Ki (ROS1-wt) | IC50 [5] | Structure (SMILES) | TPM3-NTRK1-wt/CD74-ROS1-G2032R selectivity ratio [2] | TPM3-NTRK1-wt/CD74-ROS1-wt selectivity ratio ([2]; TRKA potency / CD74-ROS1-wt potency) | TPM3-NTRK1-wt/EML4-ALK-L1196M-G1202R selectivity ratio [2] | TPM3-NTRK1-wt/EML4-ALK-wt selectivity ratio ([2]; TRKA potency / EML4-ALK-wt potency)
0.0001 to 0.05 µM | 0.05 to 0.5 µM | 0.0001 to 0.05 µM | 0.05 to 0.5 µM | < 0.05 µM | < 0.05 µM | 0.0001 to 0.05 µM | < 0.05 µM | < 0.05 µM | 0.05 to 0.5 µM | CCn1ncc2c1-c1cnc(N)c(c1)O[C@H](C)c1cc(F)ccc1-c1cc(C)nn1C2 [Example 4, (19R)-3-ethyl-16-fluoro-10,19-dimethyl-20-oxa-3,4,8,9,23-pentaazapentacyclo[19.3.1.0^2,^6.0^8,^12.0^13,^18]pentacosa-1(24),2(6),4,9,11,13,15,1 7,21 (25),22-decaen-22-amine] | A (bin A for very high selectivity, ratio >30-fold) | A (bin A for very high selectivity, ratio >30-fold) | C (bin C for moderate selectivity, ratio ≥1) | B (bin B for high selectivity, ratio >10-fold)
 | > 0.5 µM | 0.0001 to 0.05 µM | > 0.5 µM | < 0.05 µM | < 0.05 µM |  | < 0.05 µM | < 0.05 µM | 0.05 to 0.5 µM | CCn1ncc2c1-c1cnc(N)c(c1)O[C@H](C)c1cc(F)ccc1-c1c(F)cnn1C2 [Example 8, (19R)-3-ethyl-11,16-difluoro-19-methyl-20-oxa-3,4,8,9,23-pentaazapentacyclo[19.3.1.0^2,^6.0^8,^12.0^13,^18]pentacosa-1(24),2(6),4,9,11,13,15,17,21(25),22-decaen-22-amine] | A (bin A for very high selectivity, ratio >30-fold) |  | C (bin C for moderate selectivity, ratio ≥1) | 
 | 0.05 to 0.5 µM | 0.0001 to 0.05 µM | 0.05 to 0.5 µM | < 0.05 µM | < 0.05 µM |  | < 0.05 µM | < 0.05 µM | 0.0001 to 0.05 µM | CCn1ncc2c1-c1cnc(N)c(c1)O[C@H](C)c1cc(F)ccc1-c1nccnc1C2 [Example 36, (20R)-3-ethyl-17-fluoro-20-methyl-21-oxa-3,4,9,12,24-pentaazapentacyclo[20.3.1.0^2,^6.0^8,^13.0^14,^19]hexacosa-1(25),2(6),4,8(13),9,11,14,16,18,22(26),23-undecaen-23-amine] | A (bin A for very high selectivity, ratio >30-fold) |  | B (bin B for high selectivity, ratio >10-fold) | 
